Molecules are shown by their SMILES.

One assay concerns the target T1, TEL-ALK-L1196M-BaF3 (Homo sapiens, UniProt Q9UM73, L1196M, cells depend on it).
T1 construct: fused on or other part: TEL (ETV6) N-terminal oligomerising part fused before the ALK intracellular/kinase part; P41212 (Transcription factor ETV6)
Kind of assay: Cell proliferation experiment (Cell-Titer GLO), TEL-ALK-L1196M-BaF3. The conditions noted are these: 72 h, read-out: IC50 TEL-ALK L1196M-BaF3. The format is cell-based. How it is done:
(§1) Cell lines: Karpas-299 and NCI-H3122 which were purchased from the Nanjing kebai biotechnology Co. LTD; TEL-ALK-F1174L-BaF3, TEL-ALK-G1202R-BaF3, TEL-ALK-C1156Y-BaF3 and TEL-ALK-L1196M-BaF3 which were purchased from Hefei zhongkopruisheng biological medicine technology Co. LTD.
(§2) Method: Cells were seeded in 96-well plates for 24 h in growth media containing 10% fetalbovine serum (FBS) and cultured overnight at 37° C. The following day, serial dilutions of compounds or appropriate control were added to the designated wells, and cells were incubated at 37° C. for 72 h. A Cell Titer Glo assay (Promega) was then performed to determine the relative cell numbers. IC50 values were calculated by concentration-response curve fitting using a four-parameter analytical method with Graphpad 6.0.

Another assay has as its target T2, TEL-ALK-F1174L-BaF3 (Homo sapiens, UniProt Q9UM73, F1174L, cells depend on it).
T2 construct: fused on or other part: TEL (ETV6) N-terminal oligomerising part fused before the ALK intracellular/kinase part; P41212 (Transcription factor ETV6)
Kind of assay: Cell proliferation experiment (Cell-Titer GLO), TEL-ALK-F1174L-BaF3. The format is cell-based. The settings on record: 72 h, read-out: IC50 TEL-ALK F1174L-BaF3. The procedure:
(§3) Compounds to be tested: Positive compound Ceritinib and the compounds obtained by the examples of the present invention.
as §1
as §2, with “6.0. Drug inhibition rate (%)=100%−[OD(Compound)−OD(blank)]/[OD(vehicle)−OD(blank)]×100% Equation: […]” for “6.0.”

A further assay deals with NCI-H3122. Put plainly: Cell proliferation experiment (Cell-Titer GLO), NCI-H3122. The conditions noted are these: Homo sapiens, 72 h. The format is cell-based. How it is done: as §3, §1
as §2, with “6.0. Drug inhibition rate (%)=100%−[OD(Compound)−OD(blank)]/[OD(vehicle)−OD(blank)]×100% Equation: […]” for “6.0.”

The next assay has as its target T3, TEL-ALK-G1202R-BaF3 (Homo sapiens, UniProt Q9UM73, G1202R, cells depend on it).
T3 construct: fused on or other part: TEL (ETV6) N-terminal oligomerising part fused before the ALK intracellular/kinase part; P41212 (Transcription factor ETV6)
Kind of assay: Cell proliferation experiment (Cell-Titer GLO), TEL-ALK-G1202R-BaF3. The format is cell-based. The conditions noted are these: 72 h, read-out: IC50 TEL-ALK G1202R-BaF3. The procedure: as §3, §1
as §2, with “6.0. Drug inhibition rate (%)=100%−[OD(Compound)−OD(blank)]/[OD(vehicle)−OD(blank)]×100% Equation: […]” for “6.0.”

The target in the next assay is T4, ALK L1196M (Homo sapiens, UniProt Q9UM73, L1196M).
T4 construct: purchased Life Technology
T4 sequence (Q9UM73 19-1620 L1196M): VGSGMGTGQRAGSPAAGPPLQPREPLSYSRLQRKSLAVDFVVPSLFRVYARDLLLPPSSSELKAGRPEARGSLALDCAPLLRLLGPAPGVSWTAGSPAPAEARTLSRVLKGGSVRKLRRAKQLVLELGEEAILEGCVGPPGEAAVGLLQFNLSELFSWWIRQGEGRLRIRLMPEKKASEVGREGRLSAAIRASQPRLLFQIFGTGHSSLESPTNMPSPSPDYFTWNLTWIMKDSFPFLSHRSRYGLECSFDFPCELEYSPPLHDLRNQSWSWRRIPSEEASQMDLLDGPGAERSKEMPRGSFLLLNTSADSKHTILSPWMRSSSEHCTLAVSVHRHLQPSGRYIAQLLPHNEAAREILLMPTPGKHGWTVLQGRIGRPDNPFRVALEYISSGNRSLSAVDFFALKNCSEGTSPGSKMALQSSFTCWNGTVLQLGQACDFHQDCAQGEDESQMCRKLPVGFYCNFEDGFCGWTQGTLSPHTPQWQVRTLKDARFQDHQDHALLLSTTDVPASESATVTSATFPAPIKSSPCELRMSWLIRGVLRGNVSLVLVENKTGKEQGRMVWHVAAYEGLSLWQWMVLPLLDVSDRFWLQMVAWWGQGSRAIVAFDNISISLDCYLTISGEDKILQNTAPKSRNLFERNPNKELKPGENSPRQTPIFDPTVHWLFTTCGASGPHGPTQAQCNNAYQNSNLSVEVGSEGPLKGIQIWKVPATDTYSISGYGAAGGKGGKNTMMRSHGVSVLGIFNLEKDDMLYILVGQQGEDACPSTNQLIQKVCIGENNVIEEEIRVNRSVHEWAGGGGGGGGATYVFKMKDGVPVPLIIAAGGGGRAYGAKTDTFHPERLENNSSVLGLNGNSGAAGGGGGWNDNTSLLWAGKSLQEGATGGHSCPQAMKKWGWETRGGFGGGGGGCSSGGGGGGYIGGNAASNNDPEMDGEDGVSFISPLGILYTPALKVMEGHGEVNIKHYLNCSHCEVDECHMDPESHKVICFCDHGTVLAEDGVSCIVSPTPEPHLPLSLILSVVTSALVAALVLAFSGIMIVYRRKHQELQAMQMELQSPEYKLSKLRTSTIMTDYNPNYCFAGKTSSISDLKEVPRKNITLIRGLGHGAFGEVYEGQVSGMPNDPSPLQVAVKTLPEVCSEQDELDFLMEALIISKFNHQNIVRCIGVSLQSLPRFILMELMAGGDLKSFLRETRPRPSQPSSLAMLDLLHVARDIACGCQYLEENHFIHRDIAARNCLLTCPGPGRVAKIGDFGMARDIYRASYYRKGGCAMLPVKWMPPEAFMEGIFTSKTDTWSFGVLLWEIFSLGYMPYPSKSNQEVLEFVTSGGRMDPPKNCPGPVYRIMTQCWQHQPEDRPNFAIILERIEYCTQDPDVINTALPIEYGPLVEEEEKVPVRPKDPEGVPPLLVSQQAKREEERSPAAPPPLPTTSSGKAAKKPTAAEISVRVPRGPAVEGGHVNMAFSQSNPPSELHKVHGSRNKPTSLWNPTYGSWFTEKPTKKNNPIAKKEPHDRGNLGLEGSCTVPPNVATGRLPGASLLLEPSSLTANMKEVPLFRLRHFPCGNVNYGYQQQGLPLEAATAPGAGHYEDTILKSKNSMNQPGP
Kind of assay: LanthaScreen Eu Kinase Binding Assay (TR-FRET) on ALK mutant. The text has this:
Meanwhile, The LanthaScreen® Eu Kinase Binging Assay (TR-FRET) method was used for determining ALK Mutants (such as ALK L1196M) inhibitory activity IC50. LanthaScreen Eu kinase binding experiment detected Alexa Fluor conjugate or kinase “tracer” binding by adding Eu labeled antibodies or anti-label antibodies. The combination of tracer and antibody with kinase leads to a high level of FRET, whereas the use of kinase inhibitors in place of tracer may cause FRET loss.
(§4) The kinase activity assay was determined by using kinase assay panel (Life Technology) and the result was in table 1.

The next assay deals with Karpas-299. Kind of assay: Cell proliferation experiment (Cell-Titer GLO), Karpas-299. The format is cell-based. The settings on record: Homo sapiens, 72 h. The procedure: as §3, §1
as §2, with “6.0. Drug inhibition rate (%)=100%−[OD(Compound)−OD(blank)]/[OD(vehicle)−OD(blank)]×100% Equation: […]” for “6.0.”

For another assay, the target named is T5, TEL-ALK-C1156Y-BaF3 (Homo sapiens, UniProt Q9UM73, C1156Y, cells depend on it).
T5 construct: fused on or other part: TEL (ETV6) N-terminal oligomerising part fused before the ALK intracellular/kinase part; P41212 (Transcription factor ETV6)
T5 sequence (Q9UM73 whole entry C1156Y, the tested form may be a part): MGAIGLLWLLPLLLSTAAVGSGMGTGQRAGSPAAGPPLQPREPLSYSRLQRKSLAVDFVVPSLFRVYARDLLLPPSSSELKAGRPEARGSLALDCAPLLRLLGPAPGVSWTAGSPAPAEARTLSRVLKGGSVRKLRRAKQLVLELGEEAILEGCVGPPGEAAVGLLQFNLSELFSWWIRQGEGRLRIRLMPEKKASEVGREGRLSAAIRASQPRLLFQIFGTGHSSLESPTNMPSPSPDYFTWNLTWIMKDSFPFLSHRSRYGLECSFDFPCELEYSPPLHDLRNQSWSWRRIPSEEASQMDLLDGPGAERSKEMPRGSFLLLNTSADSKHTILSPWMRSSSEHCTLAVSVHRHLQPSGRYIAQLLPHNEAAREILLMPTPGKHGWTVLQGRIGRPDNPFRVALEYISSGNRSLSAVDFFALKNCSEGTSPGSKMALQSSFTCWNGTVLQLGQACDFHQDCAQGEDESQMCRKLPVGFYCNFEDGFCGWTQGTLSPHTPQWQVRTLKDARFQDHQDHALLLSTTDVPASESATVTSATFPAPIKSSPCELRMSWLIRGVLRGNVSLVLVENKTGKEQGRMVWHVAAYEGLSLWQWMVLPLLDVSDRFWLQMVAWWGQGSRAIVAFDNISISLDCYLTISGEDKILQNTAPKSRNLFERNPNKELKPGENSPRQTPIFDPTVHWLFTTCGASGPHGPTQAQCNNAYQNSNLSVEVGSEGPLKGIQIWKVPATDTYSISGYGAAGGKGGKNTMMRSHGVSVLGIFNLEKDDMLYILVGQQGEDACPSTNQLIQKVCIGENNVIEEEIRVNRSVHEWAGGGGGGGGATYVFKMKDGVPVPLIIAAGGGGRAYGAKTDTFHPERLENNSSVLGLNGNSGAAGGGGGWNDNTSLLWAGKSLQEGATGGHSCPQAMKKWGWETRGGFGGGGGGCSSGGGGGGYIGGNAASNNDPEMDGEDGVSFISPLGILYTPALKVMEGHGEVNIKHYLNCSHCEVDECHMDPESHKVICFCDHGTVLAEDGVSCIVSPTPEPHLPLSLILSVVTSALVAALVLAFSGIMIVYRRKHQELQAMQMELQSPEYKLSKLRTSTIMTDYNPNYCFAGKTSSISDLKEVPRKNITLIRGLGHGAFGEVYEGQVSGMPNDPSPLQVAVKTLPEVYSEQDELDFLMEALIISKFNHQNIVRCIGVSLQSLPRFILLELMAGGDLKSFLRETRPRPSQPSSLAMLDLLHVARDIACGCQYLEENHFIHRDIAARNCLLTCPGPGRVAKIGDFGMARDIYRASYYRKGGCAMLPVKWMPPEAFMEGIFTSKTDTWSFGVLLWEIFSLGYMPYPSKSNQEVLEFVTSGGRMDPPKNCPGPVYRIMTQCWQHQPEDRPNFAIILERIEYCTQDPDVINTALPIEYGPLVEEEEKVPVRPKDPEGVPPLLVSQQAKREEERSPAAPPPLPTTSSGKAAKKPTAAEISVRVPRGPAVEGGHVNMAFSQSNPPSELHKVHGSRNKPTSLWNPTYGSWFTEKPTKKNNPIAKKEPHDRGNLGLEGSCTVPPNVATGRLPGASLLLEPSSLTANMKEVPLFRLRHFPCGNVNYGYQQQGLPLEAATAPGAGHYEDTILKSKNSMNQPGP
Kind of assay: Cell proliferation experiment (Cell-Titer GLO), TEL-ALK-C1156Y-BaF3. The assay is classed as cell-based. The conditions noted are these: 72 h, read-out: IC50 TEL-ALK C1156Y-BaF3. The procedure:
as §3, §1
as §2, with “6.0. Drug inhibition rate (%)=100%−[OD(Compound)−OD(blank)]/[OD(vehicle)−OD(blank)]×100% Equation: […]” for “6.0.”

The target in the next assay is T6, Wild-Type ALK (Homo sapiens, UniProt Q9UM73).
T6 construct: purchased Life Technology
T6 sequence (Q9UM73 19-1620): as the sequence (Q9UM73 19-1620 L1196M) above, with M1178L counted along it
Put plainly: Z'-LYTE (FRET) ALK kinase inhibitory activity. The assay is classed as biochemical. The procedure:
as §4

The subject of assay [1] is zebrafish iridophore pigment cells. Kind of assay: Phenotypic screening of zebrafish: effect on iridophore pigment cells. The format is in vivo, Zebrafish (Danio rerio). The settings on record: for IOD: added at 6 hpf, images at 3 dpf. The text has this: Zebrafish (Danio rerio) is emerging as a predictive vertebrate animal model for in vivo assessment of drug efficacy, toxicity and safety. An important advantage of the zebrafish animal model is that the morphological and molecular basis of tissues and organs is either identical or similar to other vertebrates, including humans. The sequence and presumed function of many genes that are important for vertebrates are conserved in the zebrafish and the homology is as high as 85%. It has been shown that loss-of-function alleles for leukocyte tyrosine kinase (Ltk), the sister kinase to ALK, lack iridophores in zebrafish (Lopes, S. S., Yang, X., et al. (2008). Leukocyte tyrosine kinase functions in pigment cell development. PLoS Genet, 4.). Iridophores are neural crest-derived pigment cells that are clearly visible as shiny silver cells in the developing zebrafish embryo which distribute in the head, eyes, the lateral spine. ALK and LTK are sister kinase.
Therefore, using this principle, we investigated the effect of the compounds on normal zebrafish iridophore pigment cells to explore the compound's anti-ALK activity in vivo.
Method: Fish eggs of 6 hpf (hours post impurity) were randomly divided into groups. Then, subjects with different concentrations were added and the images were collected at 3 dpf (days post impurity). Then, the IOD (integrated option density) values of zebrafish dorsal iridophore pigment cells from the release pore to the caudal position were analyzed using ImageJ software. The Graphpad prism6.0 was used to conduct statistical analysis on Dunnett's t-test, and p<0.05 indicates statistical difference. The calculation formula of iridophore pigment inhibition rate is as follows: Inhibition rate (%)=[1−IOD(Compound)/IOD(vehicle)]×100%

For another assay, the system named is NCI-H2228 tumor cells. Kind of assay: Subcutaneous NCI-H2228 lung cancer xenograft model. The assay is classed as in vivo, BALB/C nude mice. The procedure:
BALB/C nude mice were inoculated at the right flank with NCI-H2228 tumor cells to establish the human Lung cancer xenograft model. […] The drug was administered for 14 days and then discontinued for two weeks. The therapeutic effect was evaluated by calculating the relative tumor proliferation rate T/C (%), and the tolerability of treatment was evaluated by the body weight changes and death.
Tumor volume (TV) were measured twice per week in two dimensions using a caliper, and the volume were expressed in mm^3 using the formula: V=0.5 a×b^2 where a and b are the long and short diameters of the tumor, respectively.
Relative tumor volume RTV=Vt/V0, Vt=tumor volume of the drug-treated group on a given day of the study, V0=tumor volume of the drug-treated group on the initial day of dosing.
The T/C value (%) is an indicator of tumor response to treatment, and one of commonly used anti-tumor activity endpoint; T/C %=TRTV/CRTV×100% Relative Tumor Growth Inhibition; % TGI=(1−T/C)×100%;

T3 sequence (Q9UM73 whole entry G1202R, the tested form may be a part): as the sequence (Q9UM73 whole entry C1156Y, the tested form may be a part) above, with Y1156C, G1202R counted along it
T1 sequence (Q9UM73 whole entry L1196M, the tested form may be a part): as the sequence (Q9UM73 whole entry C1156Y, the tested form may be a part) above, with Y1156C, L1196M counted along it
T2 sequence (Q9UM73 whole entry F1174L, the tested form may be a part): as the sequence (Q9UM73 whole entry C1156Y, the tested form may be a part) above, with Y1156C, F1174L counted along it

For orientation: IC50 means the concentration needed to halve the response being measured. As to `Cc1cc(Nc2ncc(C(F)(F)F)c(Nc3cn(C)nc3S(=O)(=O)C(C)C)n2)c2c(c1C1CCN(C)CC1)C[C@@H](C)O2` [REX-D4, (R)—N^2-(2,5-dimethyl-4-(1-methylpiperidin-4-yl)-2,3-dihydrobenzofuran-7-yl)-N^4-(3-(isopropylsulfonyl)-1-methyl-1H-pyrazol-4-yl)-5-(trifluoromethyl)pyrimidine-2,4-diamine], the GI50 is 0.0105 µM at TEL-ALK-L1196M-BaF3, under 0.01 µM at TEL-ALK-F1174L-BaF3, under 0.05 µM on TEL-ALK-G1202R-BaF3 and 0.0105 µM at TEL-ALK-C1156Y-BaF3. The IC50 in the assay with NCI-H3122 is 0.0106 µM; on ALK L1196M it was 0.000565 µM; in the assay on Karpas-299, under 0.01 µM; against Wild-Type ALK, 0.0059 µM.

What is called inhibition is the drop in the measured response relative to a control, in per cent. One may read the TGI as the reduction of tumour growth relative to the control group. A higher TGI goes with much slowing of growth. Consider `Cc1cc(Nc2ncc(Cl)c(Nc3cn(C)nc3S(=O)(=O)C(C)C)n2)c2c(c1C1CCN(C)CC1)C[C@@H](C)O2` [REX-D2, (R)-5-chloro-N^2-(2,5-dimethyl-4-(1-methylpiperidin-4-yl)-2,3-dihydrobenzofuran-7-yl)-N^4-(3-(isopropylsulfonyl)-1-methyl-1H-pyrazol-4-yl)pyrimidine-2,4-diamine], for which the IOD in assay [1] (5 μM) is recorded as 420.9 ± 34.1; in assay [1] (10 μM), 173.8 ± 20.5; in [1] (15 μM), 64.6 ± 16.1; in assay [1] (20 μM), 24.8 ± 5.8. In addition, the inhibition at 5 µM in [1] (Danio rerio, 5 μM, iridophore pigment, 3 dpf, read-out: Inhibition rate %) came out at 38%. For the same molecule, the inhibition at 10 µM in [1] (Danio rerio, 10 μM, iridophore pigment, 3 dpf, read-out: Inhibition rate %) was determined as 75%. Besides, the inhibition at 15 µM in [1] (Danio rerio, 15 μM, iridophore pigment, 3 dpf, read-out: Inhibition rate %) is 91%. Besides, the inhibition at 20 µM in assay [1] (Danio rerio, 20 μM, iridophore pigment, 3 dpf, read-out: Inhibition rate %) was found to be 96%. Besides, the “inhibition of the formation of iridophore pigment cells” value in assay [1] (different doses of concentration) is “significant inhibition”. Besides, the TGI is recorded as 96.1% in the assay on NCI-H2228 tumor cells (30 mg/kg PO QD 14 days, at 14 days after administration) and 98.8% with NCI-H2228 tumor cells (30 mg/kg PO QD 14 days, end of the experiment (15 days after the administration)). Also, the tumor volume with NCI-H2228 tumor cells (30 mg/kg PO QD 14 days, at 14 days after administration (first day after administration end)) was found to be 13 mm^3. For the same molecule, in the assay on NCI-H2228 tumor cells (30 mg/kg, once a day, continuously for 14 days), the anti-tumor effect entry is listed as “significant anti-tumor effect”. In addition, the GI50 at TEL-ALK-L1196M-BaF3 is 0.0105 µM; on TEL-ALK-F1174L-BaF3, under 0.01 µM; at TEL-ALK-G1202R-BaF3, under 0.05 µM; at TEL-ALK-C1156Y-BaF3, 0.0104 µM. The concentration for half-maximal inhibition (IC50) is 0.0106 µM in the assay on NCI-H3122, 0.000695 µM on ALK L1196M, under 0.01 µM with Karpas-299 and 0.0133 µM against Wild-Type ALK.

On to `Cc1cc(Nc2ncc(C(F)(F)F)c(Nc3cn(C)nc3S(=O)(=O)C(C)C)n2)c2c(c1C1CCNCC1)C[C@@H](C)O2` [REX-D3, (R)—N^2-(2,5-dimethyl-4-(piperidin-4-yl)-2,3-dihydrobenzofuran-7-yl)-N^4-(3-(isopropylsulfonyl)-1-methyl-1H-pyrazol-4-yl)-5-(trifluoromethyl)pyrimidine-2,4-diamine], for which the GI50 on TEL-ALK-L1196M-BaF3 was 0.0104 µM; at TEL-ALK-F1174L-BaF3 it was under 0.01 µM; at TEL-ALK-G1202R-BaF3, under 0.14 µM; on TEL-ALK-C1156Y-BaF3 it was 0.0105 µM. For the same molecule, the half-inhibitory concentration (IC50) is 0.0108 µM with NCI-H3122, 0.00125 µM at ALK L1196M, under 0.02 µM with Karpas-299 and 0.0159 µM on Wild-Type ALK.

Take `Cc1cc(Nc2ncc(Cl)c(Nc3cn(C)nc3S(=O)(=O)C(C)C)n2)c2c(c1C1CCNCC1)C[C@@H](C)O2` [REX-D1, (R)-5-chloro-N^2-(2,5-dimethyl-4-(piperidin-4-yl)-2,3-dihydrobenzofuran-7-yl)-N^4-(3-(isopropylsulfonyl)-1-methyl-1H-pyrazol-4-yl)pyrimidine-2,4-diamine]: the GI50 at TEL-ALK-L1196M-BaF3 was 0.0105 µM; on TEL-ALK-F1174L-BaF3, under 0.01 µM; at TEL-ALK-G1202R-BaF3 it was over 0.18 µM; at TEL-ALK-C1156Y-BaF3 it was 0.0105 µM. For the same molecule, the IC50 with NCI-H3122 was 0.0106 µM; on ALK L1196M, 0.00134 µM; in the assay on Karpas-299, under 0.02 µM; at Wild-Type ALK, 0.00682 µM.
